Results on ten molecules are retold here after ChEMBL document CHEMBL1201862, “PubChem BioAssay data set” (2004).

Each structure is given as a SMILES string.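 Dose response: 5 concentrations. Exposure: 48 h. Format: 96-well plates. Endpoint: linear interpolation; highest concentration if not reached. Here, GI50 denotes the concentration required for 50% inhibition of growth.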 Active and inactive are the calls of the source. No stated cut-off is given here; in the data, active = GI50 up to about 1.1 µM and inactive = higher.

Test systems include CAKI-1; RPMI-8226; NCI-H460; SK-MEL-5; HOP-62; UACC-257; NCI-H226; SW-620; OVCAR-3; MDA-MB-435; M14; KM12; SF-268; ACHN; SK-OV-3; A549; RXF 393; SNB-75; NCI-H522; SF-295.
What all share (experiment): inhibition of tumour cell growth, NCI panel, 48 h

For `C[Si](C)(c1ccc(C(=O)O)cc1)c1ccc(C(=O)O)cc1`, the GI50 with CAKI-1, in the assay on RPMI-8226, in the assay on NCI-H460, in the assay with SK-MEL-5, in the assay on HOP-62 and in the assay on UACC-257 was > 100 µM (inactive) throughout. Besides, the GI50 in the assay on NCI-H226, with SW-620, in the assay on OVCAR-3, in the assay on MDA-MB-435, in the assay with M14 and with KM12 was > 100 µM (inactive) each time. Moreover, the GI50 with SF-268, in the assay with ACHN, with SK-OV-3, in the assay with A549, in the assay on RXF 393 and in the assay on SNB-75 was > 100 µM (inactive) throughout. Moreover, the GI50 in the assay with NCI-H522 and in the assay on SF-295 was > 100 µM (inactive) throughout.

As for `COc1ccc2cc(C(=O)NCCCNC(=O)c3ccc4cc(OC)ccc4c3)ccc2c1`, the GI50 was > 82.4 µM (inactive) in the assay with CAKI-1; > 100 µM (inactive) with RPMI-8226; > 64.9 µM (inactive) in the assay on NCI-H460; > 100 µM (inactive) in the assay with SK-MEL-5; 14.7 µM (inactive) in the assay with HOP-62; > 96.2 µM (inactive) in the assay on UACC-257. For the same molecule, the GI50 in the assay on NCI-H226 was 49.4 µM (inactive); in the assay with SW-620 it was > 100 µM (inactive); with OVCAR-3 it was > 100 µM (inactive); in the assay with MDA-MB-435, > 100 µM (inactive); with M14 it was > 100 µM (inactive); in the assay with KM12, > 100 µM (inactive). Moreover, the GI50 is 23.9 µM (inactive) in the assay with SF-268; 33.7 µM (inactive) in the assay with ACHN; 31.5 µM (inactive) with SK-OV-3; > 100 µM (inactive) with A549; 15.8 µM (inactive) in the assay with RXF 393; 17.8 µM (inactive) with SNB-75. For the same molecule, the GI50 in the assay on NCI-H522 was > 100 µM (inactive); in the assay on SF-295, 22.4 µM (inactive).

Regarding `C[C@]12CCC(=O)C=C1C[C@@H](O)[C@@H]1[C@@H]2CC[C@@]2(C)[C@H]1CC[C@]2(C)O`, the GI50 in the assay with CAKI-1, in the assay with RPMI-8226, in the assay with NCI-H460, with SK-MEL-5, in the assay with HOP-62 and in the assay on UACC-257 was > 100 µM (inactive) in each case. Moreover, the GI50 in the assay with NCI-H226, in the assay with SW-620, in the assay on OVCAR-3, in the assay with MDA-MB-435, in the assay with M14 and with KM12 was > 100 µM (inactive) each time. In addition, the GI50 with SF-268, in the assay on ACHN, in the assay with SK-OV-3, in the assay with A549, with RXF 393 and with SNB-75 was > 100 µM (inactive) in each case. Also, the GI50 in the assay with NCI-H522 and in the assay with SF-295 was > 100 µM (inactive) throughout.

Turning to `CCCCCCc1cc2cc(-c3cn4c(n3)sc3ccccc34)c(=O)oc2cc1O`, the GI50 is > 100 µM (inactive) in the assay on CAKI-1; > 100 µM (inactive) in the assay with RPMI-8226; > 100 µM (inactive) with NCI-H460; > 100 µM (inactive) in the assay on SK-MEL-5; 73.1 µM (inactive) in the assay on HOP-62; 4.42 µM (inactive) with UACC-257. Moreover, the GI50 in the assay with NCI-H226 is > 100 µM (inactive); in the assay on SW-620 it was > 78.7 µM (inactive); in the assay with OVCAR-3 it was > 100 µM (inactive); in the assay on MDA-MB-435, 3.46 µM (inactive); in the assay on M14, 4.94 µM (inactive); in the assay on KM12 it was > 26.9 µM (inactive). In addition, the GI50 was > 100 µM (inactive) in the assay with SF-268; > 100 µM (inactive) in the assay with ACHN; > 100 µM (inactive) in the assay with SK-OV-3; > 100 µM (inactive) in the assay with A549; > 48.3 µM (inactive) with RXF 393; > 78.5 µM (inactive) in the assay with SNB-75. The values for the GI50 in the assay with NCI-H522 and with SF-295 were > 90.4 µM (inactive) and > 100 µM (inactive), respectively.

Take `CN1C2CCC1CC(CCOC(c1ccc(F)cc1)c1ccc(F)cc1)C2` (stereo not given): the GI50 in the assay on CAKI-1 is 16.3 µM (inactive); with RPMI-8226 it was 18.6 µM (inactive); with NCI-H460, 17.5 µM (inactive); with SK-MEL-5, 9.23 µM (inactive); in the assay on HOP-62, 16 µM (inactive); with UACC-257, 17.1 µM (inactive). The GI50 with NCI-H226 is 15.3 µM (inactive); with SW-620, 19.4 µM (inactive); in the assay with OVCAR-3 it was 16 µM (inactive); in the assay on MDA-MB-435 it was 12.4 µM (inactive); in the assay on M14, 16.4 µM (inactive); with KM12 it was 14.8 µM (inactive). Further, the GI50 with SF-268 was 15.8 µM (inactive); in the assay with ACHN, 17.1 µM (inactive); in the assay with SK-OV-3 it was 16.6 µM (inactive); in the assay on A549, 19.4 µM (inactive); in the assay on RXF 393, 10.4 µM (inactive); with SNB-75, 14.3 µM (inactive). The GI50 in the assay with NCI-H522 was 17.1 µM (inactive); with SF-295, 16.9 µM (inactive).

On to `CCn1c(SCC(=O)NNC(=S)Nc2ccc([N+](=O)[O-])cc2)nc2ccccc2c1=O`, for which the GI50 with CAKI-1 was > 100 µM (inactive); with RPMI-8226, 29.9 µM (inactive); with NCI-H460, 48.8 µM (inactive); with SK-MEL-5 it was 79.6 µM (inactive); with HOP-62, 81.1 µM (inactive); in the assay on UACC-257 it was > 100 µM (inactive). The GI50 with NCI-H226 was 90.4 µM (inactive); with SW-620 it was 86.5 µM (inactive); in the assay on OVCAR-3, 39.2 µM (inactive); with MDA-MB-435, > 100 µM (inactive); in the assay on M14, > 100 µM (inactive); in the assay on KM12 it was 68.2 µM (inactive). Also, the GI50 in the assay on SF-268 was 60.1 µM (inactive); with ACHN, > 100 µM (inactive); in the assay with SK-OV-3, > 100 µM (inactive); with A549, > 100 µM (inactive); with RXF 393 it was 34.5 µM (inactive); in the assay with SNB-75 it was 83.4 µM (inactive). In addition, the GI50 with NCI-H522 is 39.8 µM (inactive); in the assay with SF-295, 58.2 µM (inactive).

Take `CN1CN(c2ccccc2)C2(CCN(CCCC3(c4cccs4)OCCO3)CC2)C1=O`: the GI50 in the assay with CAKI-1 is > 100 µM (inactive); with RPMI-8226, > 100 µM (inactive); with NCI-H460, > 100 µM (inactive); in the assay on SK-MEL-5 it was 91 µM (inactive); in the assay with HOP-62, > 100 µM (inactive); with UACC-257 it was > 100 µM (inactive). The GI50 is > 100 µM (inactive) in the assay on NCI-H226; > 100 µM (inactive) in the assay on SW-620; > 100 µM (inactive) in the assay on OVCAR-3; > 100 µM (inactive) in the assay on MDA-MB-435; 96.8 µM (inactive) in the assay on M14; > 100 µM (inactive) in the assay with KM12. Also, the GI50 with SF-268 is > 100 µM (inactive); in the assay with ACHN it was > 100 µM (inactive); with SK-OV-3, > 100 µM (inactive); in the assay on A549, > 100 µM (inactive); in the assay with RXF 393 it was > 100 µM (inactive); in the assay with SNB-75, 88.7 µM (inactive). In addition, the GI50 with NCI-H522 and in the assay with SF-295 was > 100 µM (inactive) in each case.

As for `COc1cc(C2c3cc4c(cc3OC(NNS(=O)(=O)c3ccc(C)cc3)C2C)OCO4)cc(OC)c1OC` (stereo not given), the GI50 in the assay on CAKI-1 is 1.68 µM (inactive); with RPMI-8226 it was 2.08 µM (inactive); with NCI-H460, 2.13 µM (inactive); with SK-MEL-5, 0.883 µM (active); in the assay with HOP-62 it was 0.817 µM (active); in the assay with UACC-257, 3.21 µM (inactive). Moreover, the GI50 is 3.14 µM (inactive) in the assay with NCI-H226; 1.01 µM (active) with SW-620; 1.26 µM (inactive) with OVCAR-3; 0.294 µM (active) with MDA-MB-435; 0.776 µM (active) in the assay with M14; 1.26 µM (inactive) with KM12. The GI50 in the assay on SF-268 is 3.95 µM (inactive); in the assay on ACHN it was 3 µM (inactive); in the assay on SK-OV-3, 4.13 µM (inactive); in the assay with A549 it was 2.6 µM (inactive); in the assay on RXF 393, 1.76 µM (inactive); in the assay with SNB-75 it was 3.02 µM (inactive). Further, the GI50 was 1.25 µM (inactive) with NCI-H522 and 0.989 µM (active) with SF-295.

In the case of `C=CCCCCNC(=O)C[C@@H]1C2=C(CC[C@H]1O[Si](C)(C)C(C)(C)C)N1C(=O)CCC/C=C\C1C2` (stereo not given in full), the GI50 was 12.4 µM (inactive) in the assay with CAKI-1; 5.71 µM (inactive) with RPMI-8226; 14.3 µM (inactive) in the assay on NCI-H460; 14.1 µM (inactive) in the assay on SK-MEL-5; 17.9 µM (inactive) in the assay with HOP-62; 13.1 µM (inactive) with UACC-257. For the same molecule, the GI50 in the assay on NCI-H226 was 15.5 µM (inactive); in the assay with SW-620 it was 13.6 µM (inactive); with OVCAR-3 it was 14 µM (inactive); in the assay on MDA-MB-435, 14.6 µM (inactive); in the assay with M14 it was 14.3 µM (inactive); in the assay on KM12, 15 µM (inactive). Besides, the GI50 in the assay on SF-268 is 15.5 µM (inactive); in the assay with ACHN, 15.4 µM (inactive); in the assay on SK-OV-3 it was 16.6 µM (inactive); with A549, 13.1 µM (inactive); in the assay with RXF 393, 10.8 µM (inactive); with SNB-75, 16.4 µM (inactive). In addition, the GI50 in the assay on NCI-H522 was 11.7 µM (inactive); in the assay on SF-295, 14.9 µM (inactive).

As for `c1ccc(CN2CCC(=NN3CCCCC3)CC2)cc1`, the GI50 in the assay with CAKI-1 is > 100 µM (inactive); in the assay on RPMI-8226, 27.7 µM (inactive); in the assay on NCI-H460, 46.6 µM (inactive); in the assay on SK-MEL-5 it was 30.3 µM (inactive); in the assay with HOP-62 it was > 100 µM (inactive); with UACC-257 it was 47.1 µM (inactive). The GI50 in the assay on NCI-H226 is > 100 µM (inactive); in the assay with SW-620, > 100 µM (inactive); with OVCAR-3, 44.2 µM (inactive); in the assay with MDA-MB-435 it was 72.8 µM (inactive); in the assay with M14, > 100 µM (inactive); with KM12, 78.3 µM (inactive). Further, the GI50 in the assay with SF-268 was 88.1 µM (inactive); with ACHN it was > 100 µM (inactive); in the assay on SK-OV-3, > 100 µM (inactive); with A549 it was > 100 µM (inactive); in the assay on RXF 393, 35.1 µM (inactive); with SNB-75, 61.2 µM (inactive). The values for the GI50 in the assay on NCI-H522 and in the assay with SF-295 were 54.6 µM (inactive) and > 100 µM (inactive), respectively.
